Activity data for eleven compounds are collected here from ChEMBL document CHEMBL1145669, “Antihepatotoxic principles of Atractylodes rhizomes” (1983).

One experiment has as its system Hepatocyte. Put plainly: Antihepatotoxic activity against carbon tetrachloride-induced cytotoxicity in rat hepatocytes assessed as GPT level at 1 mg/mL relative to control. Format: functional.
Conditions: not given
On to `C[C@H]1CCC[C@]2(C)CC(O)[C@@H](C(C)(C)O)C[C@@H]12` (stereo partly drawn), for which the Activity was determined as 44%.

For the compound `C=C1CCC[C@]2(C)C[C@]3(O)OC(=O)C(C)=C3C[C@@H]12` [ATRACTYLENOLIDE III], the Activity is 103%.

For `C=C1CCC[C@]2(C)C=C3OC(=O)C(C)=C3C[C@@H]12` [ATRACTYLENOLIDE I], the Activity stood at 68%.

For the compound `C=C1CCC[C@]2(C)CC[C@@H](C(C)(C)O)C[C@@H]12` [BETA-EUDESMOL], the Activity is on record as 53%.

In the case of `C[C@H]1CCC[C@]2(C)CC[C@@H](C(C)(C)O)C[C@H]12` [DIHYDROEUDESMOL], the Activity came to 58%.

Turning to `C[C@H]1CCC[C@]2(C)CC(=O)[C@@H](C(C)(C)O)C[C@@H]12`, the Activity was found to be 71%.

For the compound `CC1CCC[C@H](C)[C@@]12CC[C@@H](C(C)(C)O)C2` (stereo partly drawn) [DIHYDROHINESOL], the Activity amounted to 67%.

In the case of `C=C1CCC[C@]2(C)C[C@@H]3OC(=O)C(C)=C3C[C@@H]12` [ATRACTYLENOLIDE II], the Activity is reported as 74%.

For the compound `OCc1ccco1` [FURFURYL ALCOHOL], the Activity was 90%.

In the case of `CC1=CCC[C@H](C)[C@@]12CC[C@@H](C(C)(C)O)C2` [HINESOL], the Activity was 31%.

Take `C=C1CCC[C@]2(C)Cc3occ(C)c3C[C@@H]12` [ATRACTYLON]: the Activity is 25%.

The test system of a further experiment is Hepatocyte. Put plainly: Antihepatotoxic activity against galactosamine-induced cytotoxicity in rat hepatocytes assessed as GPT level at 1 mg/mL relative to control.
Conditions: not given
It counts as functional.
Take `C[C@H]1CCC[C@]2(C)CC(O)[C@@H](C(C)(C)O)C[C@@H]12` (stereo partly drawn): the Activity is on record as 82%.

In the case of `C=C1CCC[C@]2(C)C[C@]3(O)OC(=O)C(C)=C3C[C@@H]12` [ATRACTYLENOLIDE III], the Activity was 97%.

In the case of `C=C1CCC[C@]2(C)C=C3OC(=O)C(C)=C3C[C@@H]12` [ATRACTYLENOLIDE I], the Activity is recorded as 107%.

For `C=C1CCC[C@]2(C)CC[C@@H](C(C)(C)O)C[C@@H]12` [BETA-EUDESMOL], the Activity is on record as 79%.

Take `C[C@H]1CCC[C@]2(C)CC[C@@H](C(C)(C)O)C[C@H]12` [DIHYDROEUDESMOL]: the Activity is 83%.

`C[C@H]1CCC[C@]2(C)CC(=O)[C@@H](C(C)(C)O)C[C@@H]12`: the Activity is on record as 81%.

For `CC1CCC[C@H](C)[C@@]12CC[C@@H](C(C)(C)O)C2` (stereo partly drawn) [DIHYDROHINESOL], the Activity came out at 35%.

Regarding `C=C1CCC[C@]2(C)C[C@@H]3OC(=O)C(C)=C3C[C@@H]12` [ATRACTYLENOLIDE II], the Activity is given as 94%.

For the compound `CC1=CCC[C@H](C)[C@@]12CC[C@@H](C(C)(C)O)C2` [HINESOL], the Activity amounted to 73%.

For `C=C1CCC[C@]2(C)Cc3occ(C)c3C[C@@H]12` [ATRACTYLON], the Activity is 84%.

The subject of another experiment is Hepatocyte. Put plainly: Antihepatotoxic activity against carbon tetrachloride-induced cytotoxicity in rat hepatocytes assessed as GPT level at 0.01 mg/mL relative to control. It counts as functional.
Conditions: not given
Take `C=C1CCC[C@]2(C)CC[C@@H](C(C)(C)O)C[C@@H]12` [BETA-EUDESMOL]: the Activity is listed as 83%.

For the compound `OCc1ccco1` [FURFURYL ALCOHOL], the Activity was found to be 102%.

As to `CC1=CCC[C@H](C)[C@@]12CC[C@@H](C(C)(C)O)C2` [HINESOL], the Activity amounted to 79%.

In the case of `C=C1CCC[C@]2(C)Cc3occ(C)c3C[C@@H]12` [ATRACTYLON], the Activity worked out at 67%.

The next experiment has as its target T1, Alanine aminotransferase 1 (Rattus norvegicus) (UniProt P25409).
T1 sequence (whole entry): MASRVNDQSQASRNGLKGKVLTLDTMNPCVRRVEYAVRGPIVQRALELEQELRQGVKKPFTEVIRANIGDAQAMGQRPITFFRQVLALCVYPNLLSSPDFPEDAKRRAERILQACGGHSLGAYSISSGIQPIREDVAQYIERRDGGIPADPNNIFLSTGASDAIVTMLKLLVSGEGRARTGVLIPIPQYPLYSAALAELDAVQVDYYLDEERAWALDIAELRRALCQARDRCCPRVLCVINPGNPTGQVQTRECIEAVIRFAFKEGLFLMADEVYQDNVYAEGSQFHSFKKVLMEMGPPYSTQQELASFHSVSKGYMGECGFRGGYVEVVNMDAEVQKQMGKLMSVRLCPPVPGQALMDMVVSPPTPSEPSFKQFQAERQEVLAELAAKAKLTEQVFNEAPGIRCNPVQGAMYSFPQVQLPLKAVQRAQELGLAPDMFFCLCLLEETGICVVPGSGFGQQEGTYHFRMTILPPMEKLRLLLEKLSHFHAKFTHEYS
Put plainly: Effect on GPT in rat hepatocytes relative to control. It counts as cell-based. Particulars: Hepatocyte.
`C=C1CCC[C@]2(C)CC[C@@H](C(C)(C)O)C[C@@H]12` [BETA-EUDESMOL] came in with an Activity of 106%.

As for `CC1=CCC[C@H](C)[C@@]12CC[C@@H](C(C)(C)O)C2` [HINESOL], the Activity was found to be 105%.

In turn, `C=C1CCC[C@]2(C)Cc3occ(C)c3C[C@@H]12` [ATRACTYLON] yielded an Activity of 106%.

A further experiment relates to Hepatocyte. Put plainly: Antihepatotoxic activity against galactosamine-induced cytotoxicity in rat hepatocytes assessed as GPT level at 0.01 mg/mL relative to control. It counts as functional.
Conditions: not given
For `C=C1CCC[C@]2(C)CC[C@@H](C(C)(C)O)C[C@@H]12` [BETA-EUDESMOL], the Activity is reported as 104%.

With `CC1=CCC[C@H](C)[C@@]12CC[C@@H](C(C)(C)O)C2` [HINESOL], the Activity was found to be 101%.

As for `C=C1CCC[C@]2(C)Cc3occ(C)c3C[C@@H]12` [ATRACTYLON], the Activity came to 99%.

Another experiment deals with Hepatocyte. Put plainly: Antihepatotoxic activity against carbon tetrachloride-induced cytotoxicity in rat hepatocytes assessed as GPT level at 0.1 mg/mL relative to control.
Conditions: not given
It counts as functional.
As for `C=C1CCC[C@]2(C)CC[C@@H](C(C)(C)O)C[C@@H]12` [BETA-EUDESMOL], the Activity is 70%.

For the compound `OCc1ccco1` [FURFURYL ALCOHOL], the Activity was 101%.

For the compound `CC1=CCC[C@H](C)[C@@]12CC[C@@H](C(C)(C)O)C2` [HINESOL], the Activity is 62%.

As for `C=C1CCC[C@]2(C)Cc3occ(C)c3C[C@@H]12` [ATRACTYLON], the Activity was determined as 53%.

The test system of a further experiment is Hepatocyte. Put plainly: Antihepatotoxic activity against galactosamine-induced cytotoxicity in rat hepatocytes assessed as GPT level at 0.1 mg/mL relative to control. Format: functional.
Conditions: not given
With `C=C1CCC[C@]2(C)CC[C@@H](C(C)(C)O)C[C@@H]12` [BETA-EUDESMOL], the Activity came to 94%.

Turning to `CC1=CCC[C@H](C)[C@@]12CC[C@@H](C(C)(C)O)C2` [HINESOL], the Activity is on record as 99%.

On to `C=C1CCC[C@]2(C)Cc3occ(C)c3C[C@@H]12` [ATRACTYLON], for which the Activity amounted to 92%.
